Each molecule was assayed against human GLP-1 receptor (Homo sapiens (Human), UniProt P43220). Conditions: read-out: Mean EC50; cAMP, HTRF detection, 30 min at 37° C., HEK-293 cells expressing cloned human GLP-1 receptor.
Sequence of human GLP-1 receptor (P43220 24-463): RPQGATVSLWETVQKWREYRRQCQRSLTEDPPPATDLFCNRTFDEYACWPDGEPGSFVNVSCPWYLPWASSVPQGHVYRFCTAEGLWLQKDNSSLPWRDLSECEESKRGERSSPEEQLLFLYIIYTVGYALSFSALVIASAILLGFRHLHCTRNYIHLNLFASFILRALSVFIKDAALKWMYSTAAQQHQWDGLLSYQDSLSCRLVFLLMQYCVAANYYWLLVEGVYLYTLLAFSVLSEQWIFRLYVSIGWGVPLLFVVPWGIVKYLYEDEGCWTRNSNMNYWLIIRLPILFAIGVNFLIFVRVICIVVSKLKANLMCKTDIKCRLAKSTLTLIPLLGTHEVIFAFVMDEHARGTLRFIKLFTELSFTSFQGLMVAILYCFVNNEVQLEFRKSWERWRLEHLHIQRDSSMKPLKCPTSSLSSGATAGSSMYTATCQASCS
Method: Following overnight incubation of cells, media was removed, and compounds (at concentrations ranging from 0.0001 to 100 μM) were added to monolayer cells in Iscove's modified dulbecco's medium (IMDM), 100 μM RO 20-1724 PDE inhibitor, 0.1% BSA, 2% DMSO in a final volume of 100 μL, and incubated for 30 min at 37° C. […] Alternatively, cells were harvested and combined with compounds in suspension using the buffer and protocol described above. cAMP was quantified using a homogenous time-resolved fluorescence detection system (cAMP dynamic, CIS bio International).
`Cc1nccc(-c2ccc(C[C@H](NC(=O)[C@@H]3Cc4cc5c(cc4CN3C(=O)[C@H]3CCN(C(=O)OC(C)(C)C)C3)O[C@@H](c3ccc(OCc4ccc(Cl)c(Cl)c4)cc3)CO5)C(=O)O)cc2)c1C` [Example 280, (S)-3-{(3S,8S)-8-{(S)-1-Carboxy-2-[4-(2,3-dimethyl-pyridin-4-yl)-phenyl]-ethylcarbamoyl}-3-[4-(3,4-dichloro-benzyloxy)-phenyl]-2,3,8,9-tetrahydro-6H-[1,4]dioxino[2,3-g]isoquinoline-7-carbonyl}-pyrrolidine-1-carboxylic acid tert-butyl ester] was tested, and the EC50 was 165 nM. For `Cc1nccc(-c2ccc(C[C@H](NC(=O)[C@@H]3Cc4cc5c(cc4CN3C(=O)[C@@H]3CCN(C(=O)OC(C)(C)C)C3)O[C@@H](c3ccc(OCc4ccc(Cl)c(Cl)c4)cc3)CO5)C(=O)O)cc2)c1C` [Example 281, (R)-3-{(3S,8S)-8-{(S)-1-Carboxy-2-[4-(2,3-dimethyl-pyridin-4-yl)-phenyl]-ethylcarbamoyl}-3-[4-(3,4-dichloro-benzyloxy)-phenyl]-2,3,8,9-tetrahydro-6H-[1,4]dioxino[2,3-g]isoquinoline-7-carbonyl}-pyrrolidine-1-carboxylic acid tert-butyl ester], the EC50 was 5 nM. `Cc1nccc(-c2ccc(C[C@H](NC(=O)[C@@H]3Cc4cc5c(cc4CN3C(=O)C3Cc4ccccc4C3)O[C@@H](c3ccc(OCc4ccc(Cl)c(Cl)c4)cc3)CO5)C(=O)O)cc2)c1C` [Example 282, (S)-2-{[(3S,8S)-3-[4-(3,4-Dichloro-benzyloxy)-phenyl]-7-(indane-2-carbonyl)-2,3,6,7,8,9-hexahydro-[1,4]dioxino[2,3-g]isoquinoline-8-carbonyl]-amino}-3-[4-(2,3-dimethyl-pyridin-4-yl)-phenyl]-propionic acid] showed an EC50 of 198 nM. `Cc1nccc(-c2ccc(C[C@H](NC(=O)[C@@H]3Cc4cc5c(cc4CN3C(=O)OC(C)C)O[C@@H](c3ccc(OCc4ccc(Cl)c(Cl)c4)cc3)CO5)C(=O)O)cc2)c1C` [Example 293, (3S,8S)-8-{(S)-1-Carboxy-2-[4-(2,3-dimethyl-pyridin-4-yl)-phenyl]-ethylcarbamoyl}-3-[4-(3,4-dichloro-benzyloxy)-phenyl]-2,3,8,9-tetrahydro-6H-[1,4]dioxino[2,3-g]isoquinoline-7-carboxylic acid isopropyl ester] was tested, and the EC50 was 261 nM. For `Cc1nccc(-c2ccc(C[C@H](NC(=O)[C@@H]3Cc4cc5c(cc4CN3C(=O)OCC(C)C)O[C@@H](c3ccc(OCc4ccc(Cl)c(Cl)c4)cc3)CO5)C(=O)O)cc2)c1C` [Example 295, (3S,8S)-8-{(S)-1-Carboxy-2-[4-(2,3-dimethyl-pyridin-4-yl)-phenyl]-ethylcarbamoyl}-3-[4-(3,4-dichloro-benzyloxy)-phenyl]-2,3,8,9-tetrahydro-6H-[1,4]dioxino[2,3-g]isoquinoline-7-carboxylic acid isobutyl ester], the EC50 was 137 nM. In the case of `CCCCOC(=O)N1Cc2cc3c(cc2C[C@H]1C(=O)N[C@@H](Cc1ccc(Oc2ccnc(C)c2C)cc1)C(=O)O)OC[C@H](c1ccc(OCc2ccc(Cl)c(Cl)c2)cc1)O3` [Example 299, (3S,8S)-8-{(S)-1-Carboxy-2-[4-(2,3-dimethyl-pyridin-4-yloxy)-phenyl]-ethylcarbamoyl}-3-[4-(3,4-dichloro-benzyloxy)-phenyl]-2,3,8,9-tetrahydro-6H-[1,4]dioxino[2,3-g]isoquinoline-7-carboxylic acid butyl ester], the EC50 is reported as 263 nM. For `Cc1nccc(Oc2ccc(C[C@H](NC(=O)[C@@H]3Cc4cc5c(cc4CN3C(=O)OCc3ccccc3)O[C@@H](c3ccc(OCc4ccc(Cl)c(Cl)c4)cc3)CO5)C(=O)O)cc2)c1C` [Example 302, (3S,8S)-8-{(S)-1-Carboxy-2-[4-(2,3-dimethyl-pyridin-4-yloxy)-phenyl]-ethylcarbamoyl}-3-[4-(3,4-dichloro-benzyloxy)-phenyl]-2,3,8,9-tetrahydro-6H-[1,4]dioxino[2,3-g]isoquinoline-7-carboxylic acid benzyl ester], the EC50 was 182 nM. With `Cc1nccc(-c2ccc(C[C@H](NC(=O)[C@@H]3Cc4cc5c(cc4CN3C(=O)c3ccccc3)O[C@@H](c3ccc(OCCC(C)(C)C)cc3)CO5)C(=O)O)cc2)c1C` [Example 303, (S)-2-({(3S,8S)-7-Benzoyl-3-[4-(3,3-dimethyl-butoxy)-phenyl]-2,3,6,7,8,9-hexahydro-[1,4]dioxino[2,3-g]isoquinoline-8-carbonyl}-amino)-3-[4-(2,3-dimethyl-pyridin-4-yl)-phenyl]-propionic acid] the EC50 was 141 nM. Molecule `Cc1nccc(-c2ccc(C[C@H](NC(=O)[C@@H]3Cc4cc5c(cc4CN3C(=O)c3ccccc3)O[C@@H](c3ccc(OCC4CCCC4)cc3)CO5)C(=O)O)cc2)c1C` [Example 305, (S)-2-{[(3S,8S)-7-Benzoyl-3-(4-cyclopentylmethoxy-phenyl)-2,3,6,7,8,9-hexahydro-[1,4]dioxino[2,3-g]isoquinoline-8-carbonyl]-amino}-3-[4-(2,3-dimethyl-pyridin-4-yl)-phenyl]-propionic acid] has an EC50 of 200 nM. Molecule `Cc1nccc(-c2ccc(C[C@H](NC(=O)[C@@H]3Cc4cc5c(cc4CN3C(=O)c3ccccc3)O[C@@H](c3ccc(O[C@H]4CC[C@H](C)CC4)cc3)CO5)C(=O)O)cc2)c1C` [Example 306, (S)-2-({(3S,8S)-7-Benzoyl-3-[4-(trans-4-methyl-cyclohexyloxy)-phenyl]-2,3,6,7,8,9-hexahydro-[1,4]dioxino[2,3-g]isoquinoline-8-carbonyl}-amino)-3-[4-(2,3-dimethyl-pyridin-4-yl)-phenyl]-propionic acid] has an EC50 of 103 nM. `Cc1nccc(-c2ccc(C[C@H](NC(=O)[C@@H]3Cc4cc5c(cc4CN3C(=O)N3CCOCC3)O[C@@H](c3ccc(OCc4ccc(Cl)c(Cl)c4)cc3)CO5)C(=O)O)cc2)c1C` [Example 311, (S)-2-{[(3S,8S)-3-[4-(3,4-Dichloro-benzyloxy)-phenyl]-7-(morpholine-4-carbonyl)-2,3,6,7,8,9-hexahydro-[1,4]dioxino[2,3-g]isoquinoline-8-carbonyl]-amino}-3-[4-(2,3-dimethyl-pyridin-4-yl)-phenyl]-propionic acid] showed an EC50 of 74 nM. With `Cc1nccc(-c2ccc(C[C@H](NC(=O)[C@@H]3Cc4cc5c(cc4CN3C(=O)N3CCCCC3)O[C@@H](c3ccc(OCc4ccc(Cl)c(Cl)c4)cc3)CO5)C(=O)O)cc2)c1C` [Example 312, (S)-2-{[(3S,8S)-3-[4-(3,4-Dichloro-benzyloxy)-phenyl]-7-(piperidine-1-carbonyl)-2,3,6,7,8,9-hexahydro-[1,4]dioxino[2,3-g]isoquinoline-8-carbonyl]-amino}-3-[4-(2,3-dimethyl-pyridin-4-yl)-phenyl]-propionic acid] the EC50 was 32 nM. Molecule `Cc1nccc(-c2ccc(C[C@H](NC(=O)[C@@H]3Cc4cc5c(cc4CN3C(=O)N3CCCC3)O[C@@H](c3ccc(OCc4ccc(Cl)c(Cl)c4)cc3)CO5)C(=O)O)cc2)c1C` [Example 313, (S)-2-{[(3S,8S)-3-[4-(3,4-Dichloro-benzyloxy)-phenyl]-7-(pyrrolidine-1-carbonyl)-2,3,6,7,8,9-hexahydro-[1,4]dioxino[2,3-g]isoquinoline-8-carbonyl]-amino}-3-[4-(2,3-dimethyl-pyridin-4-yl)-phenyl]-propionic acid] has an EC50 of 73 nM.

From patent US9175003B2, “Substituted azoanthracene derivatives and intermediates for preparation thereof” (TransTech Pharma, LLC, priority 2009, dated 2015)
